Literature values, collected in patent US7250416B2, “Azacytosine analogs and derivatives” (SuperGen, Inc., priority 2005, dated 2007).
Like-named read-outs stand apart in the source and are kept apart here.

How the values were obtained:
[1] = for steady-state plasma concentration: estimated
[2] = biological target: T1, cytidine deaminase (Homo sapiens, UniProt P32320); settings: by cytidine deaminase at equal concentrations
T1 construct: the enzyme purified from human liver; from tissue; host or cells: human liver
T1 sequence (P32320 whole entry): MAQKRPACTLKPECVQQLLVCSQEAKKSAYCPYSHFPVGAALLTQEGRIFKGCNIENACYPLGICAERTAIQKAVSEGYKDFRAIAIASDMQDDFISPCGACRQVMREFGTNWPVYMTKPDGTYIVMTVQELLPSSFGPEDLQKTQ

steady-state plasma concentration ([1]; 6-hour infusion of 100 mg/m^2) [µg/mL]	range of concentrations during infusion ([1]; 600-mg/m^2 infusion) [µg/mL]	half-life after discontinuing the infusion ([1]; humans) [min]	total urinary excretion, % of the administered dose ([1]; humans)	volume of distribution ([1]; humans)	terminal half-life ([1]; humans, measured by bioassay) [min]	steady-state plasma concentration ([1]; infusion rate of 1 mg/kg/h) [µg/mL]	plasma concentration ([1]; infusion times of 40–60 hours, infusion rate 1 mg/kg/h) [ng/mL]	penetration into the cerebrospinal fluid, % of the plasma concentration ([1]; man, end of a 36-hour intravenous infusion)	plasma concentration ([1]; patients, 100 mg/m^2 as a 3-hour infusion)	time of hydrolysis to the amidino-urea derivative (1h) (alkaline medium)	stability in aqueous media (aqueous media, hydrolytic degradation)	maximum infusion time of reconstituted solution (reconstituted aqueous solution stored in the refrigerator for less than 7 hr) [h]	rate of deamination relative to that of decitabine [2]	SMILES
0.31 to 0.39	0.41 to 16	12 to 20	less than 1%	about 4.6 L/kg	10 to 35	0.2 to 0.5	430 to 760	14–21%	about 0.4 μg/ml	within a few minutes	unstable	≤ 3	–	Nc1ncn([C@H]2C[C@H](O)[C@@H](CO)O2)c(=O)n1 [decitabine, 5-aza-2′-deoxycytidine]
–	–	–	–	–	–	–	–	–	–	–	–	–	about 6 fold	Nc1ccn([C@H]2C[C@H](O)[C@@H](CO)O2)c(=O)n1 [deoxycytidine, 2′-deoxycytidine]
